{"source": "patent US10913738B2", "about": "(BRISTOL-MYERS SQUIBB COMPANY, priority 2017, dated 2021)", "key": {"[1]": {"biological_target": "T1, His-GST-TVMV-hRIPK1(1-324) (Homo sapiens, UniProt Q13546)", "T1 construct": "The coding region of human RIPK1(1-324) flanked by NdeI site at 5′ end; made in house; host or cells: Spodoptera frugiperda (Sf9) insect cells, baculovirus", "T1 sequence (Q13546 1-324)": "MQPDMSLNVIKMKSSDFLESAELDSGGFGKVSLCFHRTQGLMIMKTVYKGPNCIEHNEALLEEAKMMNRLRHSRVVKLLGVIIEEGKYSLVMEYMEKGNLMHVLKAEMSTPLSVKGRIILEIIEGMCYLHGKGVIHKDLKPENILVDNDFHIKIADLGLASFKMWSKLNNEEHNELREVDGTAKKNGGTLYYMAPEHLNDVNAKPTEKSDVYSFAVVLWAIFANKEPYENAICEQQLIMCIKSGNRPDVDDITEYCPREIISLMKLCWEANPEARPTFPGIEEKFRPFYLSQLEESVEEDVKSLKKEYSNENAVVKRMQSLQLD", "assay": "RIPK1 HTRF Binding Assay"}, "[2]": {"test_system": "MLKL phosphorylation in HT29-L23 human colorectal adenocarcinoma cells", "assay": "MLKL Phosphorylation High-Content Assay", "assay_type": "cell-based", "settings": "Homo sapiens", "in_short": "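Cells incubated six hours at 37° C., then phospho-MLKL (S358) immunostained overnight at 4° C. and imaged by high-content microscopy. Phosphorylation quantified as mean circ-ring average intensity ratio; IC50 and Ymax from 4-parameter logistic fits.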"}, "[3]": {"settings": "x marks IC50 class <20 nM, read-out: RIPK1 HTRF binding <20 nM"}, "[4]": {"settings": "x marks IC50 class <20 nM, read-out: pMLKL cell activity <20 nM"}, "[5]": {"settings": "x marks IC50 class 20-200 nM, read-out: pMLKL cell activity 20-200 nM"}, "[6]": {"settings": "x marks IC50 class 20-200 nM, read-out: RIPK1 HTRF binding 20-200 nM"}, "[7]": {"settings": "x marks IC50 class >200 nM, read-out: pMLKL cell activity >200 nM"}, "[8]": {"settings": "x marks IC50 class >200 nM, read-out: RIPK1 HTRF binding >200 nM"}}, "note": "Where two headings read alike, the source gives them in different places."}
{"compound": "COc1nc(C)c(-c2ccn3nc(N)nc3c2)cc1C(=O)NCc1c(F)cccc1OCC1CCC1", "note": "[Example 214, 5-{2-amino-[1,2,4]triazolo[1,5-a]pyridin-7-yl}-N-{[2-(cyclobutylmethoxy)-6-fluorophenyl]methyl}-2-methoxy-6-methylpyridine-3-carboxamide]", "values": [{"measurement": "IC50", "setting": "[1]; [3]", "value": "< 0.02", "unit": "µM"}, {"measurement": "IC50", "setting": "[2]; [4]", "value": "< 0.02", "unit": "µM"}]}
{"compound": "COc1nc(C)c(-c2ccn3nc(N)nc3c2)cc1C(=O)NCc1ccccc1OCC(F)(F)F", "note": "[Example 332, 5-(2-amino-[1,2,4]triazolo[1,5-a]pyridin-7-yl)-2-methoxy-6-methyl-N-(2-(2,2,2-trifluoroethoxy)benzyl)nicotinamide]", "values": [{"measurement": "IC50", "setting": "[1]; [3]", "value": "< 0.02", "unit": "µM"}, {"measurement": "IC50", "setting": "[2]; [5]", "value": "0.02 to 0.2", "unit": "µM"}]}
{"compound": "COc1ncc(-c2ccn3nc(N)nc3c2)cc1C(=O)NCc1ccc(F)cc1OC(=O)N(C)C", "note": "[Example 103]", "values": [{"measurement": "IC50", "setting": "[1]; [6]", "value": "0.02 to 0.2", "unit": "µM"}, {"measurement": "IC50", "setting": "[2]; [7]", "value": "> 0.2", "unit": "µM"}]}
{"compound": "[2H]C([2H])([2H])Oc1ncc(-c2ccn3nc(N)nc3c2)cc1C(=O)NCc1cc(F)cc(F)c1OCC1CC1", "note": "[Example 94, 5-{2-amino-[1,2,4]triazolo[1,5-a]pyridin-7-yl}-N-{[2-(cyclopropylmethoxy)-3,5-difluorophenyl]methyl}-2-(deutero)methoxypyridine-3-carboxamide]", "values": [{"measurement": "IC50", "setting": "[1]; [3]", "value": "< 0.02", "unit": "µM"}, {"measurement": "IC50", "setting": "[2]; [4]", "value": "< 0.02", "unit": "µM"}]}
{"compound": "COc1nc(C)c(-c2ccn3nc(N)nc3c2)cc1C(=O)NCc1ccccc1OCC1CCCCC1", "note": "[Example 7, 5-{2-Amino-[1,2,4]triazolo[1,5-a]pyridin-7-yl}-N-{[2-(cyclohexylmethoxy)phenyl]methyl}-2-methoxy-6-methylpyridine-3-carboxamide]", "values": [{"measurement": "IC50", "setting": "[1]; [3]", "value": "< 0.02", "unit": "µM"}, {"measurement": "IC50", "setting": "[2]; [5]", "value": "0.02 to 0.2", "unit": "µM"}]}
{"compound": "COc1cnc(-c2ccn3nc(N)nc3c2)cc1C(=O)NCc1cc(OC(F)(F)F)ccc1F", "note": "[Example 388, 2-(2-amino-[1,2,4]triazolo[1,5-a]pyridin-7-yl)-N-(2-fluoro-5-(trifluoromethoxy)benzyl)-5-methoxyisonicotinamide]", "values": [{"measurement": "IC50", "setting": "[1]; [6]", "value": "0.02 to 0.2", "unit": "µM"}, {"measurement": "IC50", "setting": "[2]; [5]", "value": "0.02 to 0.2", "unit": "µM"}]}
{"compound": "COc1nc(C)c(-c2ccn3nc(N)nc3c2)cc1C(=O)NCc1cccc(OC(F)(F)F)c1", "note": "[Example 210, 5-{2-amino-[1,2,4]triazolo[1,5-a]pyridin-7-yl}-2-methoxy-6-methyl-N-{[3-(trifluoromethoxy)phenyl]methyl}pyridine-3-carboxamide]", "values": [{"measurement": "IC50", "setting": "[1]; [3]", "value": "< 0.02", "unit": "µM"}, {"measurement": "IC50", "setting": "[2]; [5]", "value": "0.02 to 0.2", "unit": "µM"}]}
{"compound": "Cc1ncc(-c2ccn3nc(N)nc3c2)cc1C(=O)NCC[C@@H](O)c1ccc(Cl)cc1", "note": "[Example 224]", "values": [{"measurement": "IC50", "setting": "[1]; [3]", "value": "< 0.02", "unit": "µM"}, {"measurement": "IC50", "setting": "[2]; [5]", "value": "0.02 to 0.2", "unit": "µM"}]}
{"compound": "Cc1ncc(-c2ccn3nc(N)nc3c2)cc1C(=O)NCc1cc(F)cc(F)c1OC1CCOC1", "note": "(centres unmarked) [Example 317, 5-(2-amino-[1,2,4]triazolo[1,5-a]pyridin-7-yl)-N-(3,5-difluoro-2-((tetrahydrofuran-3-yl)oxy)benzyl)-2-methylnicotinamide]", "values": [{"measurement": "IC50", "setting": "[1]; [6]", "value": "0.02 to 0.2", "unit": "µM"}, {"measurement": "IC50", "setting": "[2]; [7]", "value": "> 0.2", "unit": "µM"}]}
{"compound": "COc1cnc(-c2ccn3nc(N)nc3c2)cc1C(=O)NCCC(C)c1ccccc1", "note": "(centres unmarked) [Example 390, 2-(2-amino-[1,2,4]triazolo[1,5-a]pyridin-7-yl)-5-methoxy-N-(3-phenylbutyl)isonicotinamide]", "values": [{"measurement": "IC50", "setting": "[1]; [6]", "value": "0.02 to 0.2", "unit": "µM"}, {"measurement": "IC50", "setting": "[2]; [7]", "value": "> 0.2", "unit": "µM"}]}
{"compound": "Cc1ncc(-c2ccn3nc(N)nc3c2)cc1C(=O)NCc1ccccc1OCC(F)(F)F", "note": "[Example 312, 5-(2-amino-[1,2,4]triazolo[1,5-a]pyridin-7-yl)-2-methyl-N-(2-(2,2,2-trifluoroethoxy)benzyl)nicotinamide]", "values": [{"measurement": "IC50", "setting": "[1]; [6]", "value": "0.02 to 0.2", "unit": "µM"}, {"measurement": "IC50", "setting": "[2]; [7]", "value": "> 0.2", "unit": "µM"}]}
{"compound": "Cc1ncc(-c2ccn3nc(N)nc3c2)cc1C(=O)N1CCCC(C(O)c2ccc(F)cc2)C1", "note": "(centres unmarked) [Example 423, (5-(2-amino-[1,2,4]triazolo[1,5-a]pyridin-7-yl)-2-methylpyridin-3-yl)(3-((4-fluorophenyl)(hydroxy)methyl)piperidin-1-yl)methanone]", "values": [{"measurement": "IC50", "setting": "[1]; [8]", "value": "> 0.2", "unit": "µM"}, {"measurement": "IC50", "setting": "[2]; [7]", "value": "> 0.2", "unit": "µM"}]}
{"compound": "Cc1ncc(C(=O)NCc2cc(OC(F)(F)F)ccc2F)cc1-c1ccn2nc(N)nc2c1", "note": "[Example 256, 5-{2-amino-[1,2,4]triazolo[1,5-a]pyridin-7-yl}-N-{[2-fluoro-5-(trifluoromethoxy)phenyl]methyl}-6-methylpyridine-3-carboxamide]", "values": [{"measurement": "IC50", "setting": "[1]; [6]", "value": "0.02 to 0.2", "unit": "µM"}, {"measurement": "IC50", "setting": "[2]; [7]", "value": "> 0.2", "unit": "µM"}]}
{"compound": "COc1ncc(-c2ccn3nc(N)nc3c2)cc1C(=O)NCc1cc(F)cc(F)c1OC1CC1", "note": "[Example 344, 5-(2-amino-[1,2,4]triazolo[1,5-a]pyridin-7-yl)-N-(2-cyclopropoxy-3,5-difluorobenzyl)-2-methoxynicotinamide]", "values": [{"measurement": "IC50", "setting": "[1]; [3]", "value": "< 0.02", "unit": "µM"}, {"measurement": "IC50", "setting": "[2]; [5]", "value": "0.02 to 0.2", "unit": "µM"}]}
{"compound": "Cc1nc(C)c(-c2ccn3nc(N)nc3c2)cc1C(=O)NCc1cc(F)cc(F)c1OCC1CC1", "note": "[Example 184, 5-{2-amino-[1,2,4]triazolo[1,5-a]pyridin-7-yl}-N-{[2-(cyclopropylmethoxy)-3,5-difluorophenyl]methyl}-2,6-dimethylpyridine-3-carboxamide]", "values": [{"measurement": "IC50", "setting": "[1]; [3]", "value": "< 0.02", "unit": "µM"}, {"measurement": "IC50", "setting": "[2]; [4]", "value": "< 0.02", "unit": "µM"}]}
{"compound": "CC(C)Oc1c(F)cc(F)cc1CNC(=O)c1cc(-c2ccn3nc(N)nc3c2)cnc1Cl", "note": "[Example 163, 5-{2-amino-[1,2,4]triazolo[1,5-a]pyridin-7-yl}-2-chloro-N-{[3,5-difluoro-2-(propan-2-yloxy)phenyl]methyl}pyridine-3-carboxamide]", "values": [{"measurement": "IC50", "setting": "[1]; [3]", "value": "< 0.02", "unit": "µM"}, {"measurement": "IC50", "setting": "[2]; [5]", "value": "0.02 to 0.2", "unit": "µM"}]}
{"compound": "COc1nc(C)c(-c2ccn3nc(N)nc3c2)cc1C(=O)NCc1ncccc1OC1CCCC1", "note": "[Example 213, 5-{2-amino-[1,2,4]triazolo[1,5-a]pyridin-7-yl}-N-{[3-(cyclopentyloxy)pyridin-2-yl]methyl}-2-methoxy-6-methylpyridine-3-carboxamide]", "values": [{"measurement": "IC50", "setting": "[1]; [3]", "value": "< 0.02", "unit": "µM"}, {"measurement": "IC50", "setting": "[2]; [4]", "value": "< 0.02", "unit": "µM"}]}
{"compound": "[2H]C([2H])([2H])[C@@H](NC(=O)c1cc(-c2ccn3nc(N)nc3c2)cnc1C)c1cc(OC(F)(F)F)ccc1F", "note": "[Example 299, (R)-5-(2-amino-[1,2,4]triazolo[1,5-a]pyridin-7-yl)-N-(1-(2-fluoro-5-(trifluoromethoxy)phenyl)ethyl-2,2,2-d3)-2-methylnicotinamide]", "values": [{"measurement": "IC50", "setting": "[1]; [3]", "value": "< 0.02", "unit": "µM"}, {"measurement": "IC50", "setting": "[2]; [4]", "value": "< 0.02", "unit": "µM"}]}
{"compound": "COc1ncc(-c2ccn3nc(N)nc3c2)cc1C(=O)NCc1c(F)cc(F)cc1OCC1CCCC1", "note": "[Example 122, 5-{2-amino-[1,2,4]triazolo[1,5-a]pyridin-7-yl}-N-{[2-(cyclopentylmethoxy)-4,6-difluorophenyl]methyl}-2-methoxypyridine-3-carboxamide]", "values": [{"measurement": "IC50", "setting": "[1]; [3]", "value": "< 0.02", "unit": "µM"}, {"measurement": "IC50", "setting": "[2]; [5]", "value": "0.02 to 0.2", "unit": "µM"}]}
{"compound": "COc1ncc(-c2ccn3nc(N)nc3c2)cc1C(=O)NCc1c(OCC2CC2)ccc(F)c1F", "note": "[Example 338, 5-(2-amino-[1,2,4]triazolo[1,5-a]pyridin-7-yl)-N-(6-(cyclopropylmethoxy)-2,3-difluorobenzyl)-2-methoxynicotinamide]", "values": [{"measurement": "IC50", "setting": "[1]; [3]", "value": "< 0.02", "unit": "µM"}, {"measurement": "IC50", "setting": "[2]; [4]", "value": "< 0.02", "unit": "µM"}]}
{"compound": "CCOc1ncc(-c2ccn3nc(N)nc3c2)cc1C(=O)NCC[C@H](O)c1ccc(Cl)cc1", "note": "[Example 278, 5-{2-amino-[1,2,4]triazolo[1,5-a]pyridin-7-yl}-N-[(3S)-3-(4-chlorophenyl)-3-hydroxypropyl]-2-ethoxypyridine-3-carboxamide]", "values": [{"measurement": "IC50", "setting": "[1]; [6]", "value": "0.02 to 0.2", "unit": "µM"}, {"measurement": "IC50", "setting": "[2]; [7]", "value": "> 0.2", "unit": "µM"}]}
{"compound": "COc1cnc(-c2ccn3nc(N)nc3c2)cc1C(=O)NCc1cc(C(F)(F)F)ccc1F", "note": "[Example 391, 2-(2-amino-[1,2,4]triazolo[1,5-a]pyridin-7-yl)-N-(2-fluoro-5-(trifluoromethyl)benzyl)-5-methoxyisonicotinamide]", "values": [{"measurement": "IC50", "setting": "[1]; [8]", "value": "> 0.2", "unit": "µM"}, {"measurement": "IC50", "setting": "[2]; [7]", "value": "> 0.2", "unit": "µM"}]}
